The values below come from patent US9499472B2, “Aspartylamide inhibitors of excitatory amino acid transporters” (priority 2012, dated 2016).

Where two headings read alike, the source gives them in different places.

The subject of data set [1] is panel of central nervous system protein binding sites defined in FIG. 8. The experiment in a line: competitive radioligand binding panel of central nervous system protein binding sites (FIG. 8). Further details: key: No Activity: no greater than or equal to 50% inhibition of binding. To be noted: 1 micromole assay concentration, duplicate. How it is done: In separate in vitro competitive pharmacological assays performed in duplicate, compounds 1 and 6 at 1 micromole concentrations were evaluated against the panel of central nervous system protein binding sites that are defined in FIG. 8. As noted in FIG. 8, the assays utilized specific established radioligands for the respective competition binding assays, and respective assay ligand standards that afforded respective pharmacological inhibition binding curves of half maximal inhibitory concentration (IC50) values. […] In other words, the concentrations of compounds 1 and 6 that would be required to inhibit the FIG. 8 radioligand bindings at their respective protein sites would have to be greater than 1 micromole concentration.

Data set [2] can be described thus: brain penetration and metabolism in live mice, LC/MS-MS of compound 6 in brain and plasma. It is filed as in vivo, C57BL/6 mice. The following applies: for levels of compound 6 (hydrolyzed compound 1) per gram brain tissue: mouse, 10 mg/Kg tail vein injection, all time points 1-90 min, ester vs acid administered. As for the experimental part: A series of separate experiments were performed with compounds 1 or 6 in groups of C57BL/6 mice (6-8 weeks old; Charles River, Wilmington, Mass.) as a function of dose and time, where concentrations of compound 6 in brain and plasma (nanogram of compound 6/g of brain tissue or blood) were measured by liquid chromatography/mass spectrometry (LC/MS-MS) detection by literature methods (Chernet et al., Life Sci. 78:340-346 (2005)). In general, doses of compounds 1 and 6 were prepared at 1, 5 or 10 mg/Kg in a homogenous solution composed of 3% dimethyl sulfoxide and 97% […] pH 7.4. Doses (0.25 mL volume) were administered by tail vein injection to groups (n≧3) of mice. Mice were sacrificed at 1, 3 10, 30, 60, 90 and 100 minutes post-injection. For some groups of mice, brains were removed, weighed, homogenized (polytron, in SDS and water) extracted with acetonitrile and then centrifuged where the acetonitrile supernatant was collected. For other groups of mice, blood was collected ([…]), weighed, and then the samples were centrifuged where the supernatant plasma was collected and extracted with acetonitrile with and without 0.1% formic acid. To validate the extraction methods, other control (non-dosed) mice brains and plasma samples were spiked with various amounts (5-25,000 ng) of compound 6 and were processed in a similar fashion and then analyzed as described below. Respective acetonitrile extracts were diluted with methanol and 20 μL portions were then subjected to analytical reverse phase (C-18 analytical column, isocratic acetonitrile/water solvent) high performance liquid chromatography (HPLC), where the HPLC fractions were quantified using a mass spectrometer set to selectively monitor the mass-to-charge ratio of singly protonated compound 6 (C17H16FN2O3, exact mass: 315.11). In other analyses, a standard curve of compound 6 was constructed (5-25,000 nanogram mass range) and analyzed similarly. Quantities (nanograms, ng) of compound 6 from the dosed treated mouse brain and plasma samples were determined by correlation to the quantitative control spike method of detection (above) and also confirmed by interpolations against the compound 6 standard curve. Data was imported into Microsoft Excel and plotted as nanogram (ng) of detected hydrolyzed compound 1 (that is, compound 6/gram (g) brain tissue or plasma versus time (minutes). The data from the mouse experiments are shown in FIGS. 4 and 5.
Shown in FIG. 4 are the results from 10 mg/Kg administration of the ester compound 1 (shown as black bars) or the acid compound 6 (shown as grey bars) relative to the amounts of hydrolyzed compound 1 (that is, compound 6) per gram brain tissue at time points 1, 3, 10, 60 and 90 minutes post-injection. […]

Data set [3] concerns the target T1, EAAT2 (Homo sapiens, UniProt P43004).
T1 construct: expressed in transfected cells; host or cells: C17.2 cells, transient transfection with FuGENE6
In words: [3H]D-aspartate uptake by EAAT2 transiently expressed in C17.2 cells. It is filed as cell-based.
Procedure: The excitatory amino acid transporter 2 (EAAT2) was transiently expressed in C17.2 cells using an AAV-based vector pAM-CAG-EAAT3-WPRE as described in the literature (Esslinger). Cells between passages 10-20 were seeded at 5×10^4 cells/well in 12 well plates and grown in complete DMEM supplemented with 10% fetal bovine serum, 1 mM sodium pyruvate, 0.1 mM nonessential amino acids solution. At 24 hours after plating, cells were transfected using FuGENE6 Transfection Reagent (Roche, Indianapolis, Ind.) in a ratio of 4 μL of FuGENE6 to 3 μg of purified plasmid DNA in accordance with manufacturers instructions. The cells were used in the transport assays 24 hours following transfection as described by Esslinger. Briefly, transfected C17.2 cells were grown in DMEM containing 10% FCS in a humid atmosphere of 5% CO2. Near-confluent cells (plated at 5×10^4 cells/well) were rinsed with a physiological buffer (138 mM NaCl, 11 mM D-glucose, 5.3 mM KCl, 0.4 mM KH2PO4, 0.3 mM Na2HPO4, 1.1 mM CaCl2, 0.7 mM MgSO4, 10 mM HEPES, pH 7.4) and allowed to pre-incubate at 37° C. for 5 minutes.
Three types of binding experiments were performed: a) single concentrations of compounds 1 or 6 were added simultaneously to the cell assay with 1 μM ^3H-D-aspartate, b) six or more concentrations of compound 6 were added simultaneously to the cell assay with 1 μM ^3H-D-aspartate; and c) six or more concentrations of compound 6 were pre-incubated with cells for 25 minutes, after which 1 μM ^3H-D-aspartate was added to the cell to initiate the assay. […] The cells were dissolved in 0.4 N NaOH for 24 hours and analyzed for radioactivity by liquid scintillation counting and protein by the BCA (Pierce) method. For each type of uptake assay experiment, they were conducted with at least 2 cell-containing tissue culture wells, with duplicate samples from each well analyzed for radioactivity. […] Initial studies confirmed that uptake quantified in this manner was linear with time and protein levels and also that uptake in un-transfected C17.2 cells was indistinguishable from background. […]

The target of data set [4] is T2, EAAT2 (Rattus norvegicus, UniProt P31596).
T2 construct: from tissue; host or cells: live male Sprague-Dawley rat brain and spinal cord (in vivo PET)
T2 sequence (P31596 whole entry): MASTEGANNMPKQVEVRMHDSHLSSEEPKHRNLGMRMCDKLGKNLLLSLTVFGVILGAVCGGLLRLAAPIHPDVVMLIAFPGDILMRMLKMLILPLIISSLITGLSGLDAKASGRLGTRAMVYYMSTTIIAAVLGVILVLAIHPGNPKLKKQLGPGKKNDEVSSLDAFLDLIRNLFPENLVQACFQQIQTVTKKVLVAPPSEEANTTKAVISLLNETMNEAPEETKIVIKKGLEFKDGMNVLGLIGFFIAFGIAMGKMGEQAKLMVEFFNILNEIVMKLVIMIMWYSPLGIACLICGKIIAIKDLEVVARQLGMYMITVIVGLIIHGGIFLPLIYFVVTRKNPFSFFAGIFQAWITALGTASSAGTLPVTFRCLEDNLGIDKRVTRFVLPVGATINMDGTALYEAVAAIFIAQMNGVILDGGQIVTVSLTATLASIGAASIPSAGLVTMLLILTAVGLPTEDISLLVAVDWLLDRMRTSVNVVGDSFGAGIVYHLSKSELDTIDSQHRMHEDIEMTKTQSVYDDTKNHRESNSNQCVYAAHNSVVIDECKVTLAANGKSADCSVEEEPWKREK
In words: tracer PET brain imaging and quantitative EAAT2 detection in rat. It is filed as in vivo, rat (Sprague-Dawley). To be noted: 5 mg/Kg dose 10 minutes before tracer 2, all CNS ROIs, all times post-injection. How it is done: As an example of the tracer compound of the invention, rodent (rat) quantitative in vivo PET imaging trials are presented employing the tracer compound 2 of Example VI. The in vivo PET imaging was performed in parallel with magnetic resonance (MR) and computed axial tomography (CAT, CT) imaging methods, in which the latter two imaging methods afforded anatomical tissue information for co-registration to the acquired tracer quantitative PET data. […] Two rodent imaging trials (A-B) were performed employing two age-matched male Sprague-Dawley subjects. The age of the subjects were nearly identical to those described in the most recent rat (Sprague-Dawley, amongst others) stereotaxic brain atlas (Paxinos et al., “[…],” Academic Press: Burlington, Mass. (2007))
providing high confidence levels for identification and definition of explicit brain cerebral fine tissue structures as regions of interest (ROIs) for quantitative analysis, and as a function of three-dimensional (3D) co-registration of cerebral soft tissue identification by MR scan analysis and landmark anatomical features from CAT data.
The PET data were acquired with a Siemens Inveon microPET scanner (ca. 1.5 mm spatial resolution). Rodent subject tail vein tracer 2 injection volumes (Table 1) used the tracer 2 dose formulation described in Example VI. […]

T1 sequence (P43004 whole entry): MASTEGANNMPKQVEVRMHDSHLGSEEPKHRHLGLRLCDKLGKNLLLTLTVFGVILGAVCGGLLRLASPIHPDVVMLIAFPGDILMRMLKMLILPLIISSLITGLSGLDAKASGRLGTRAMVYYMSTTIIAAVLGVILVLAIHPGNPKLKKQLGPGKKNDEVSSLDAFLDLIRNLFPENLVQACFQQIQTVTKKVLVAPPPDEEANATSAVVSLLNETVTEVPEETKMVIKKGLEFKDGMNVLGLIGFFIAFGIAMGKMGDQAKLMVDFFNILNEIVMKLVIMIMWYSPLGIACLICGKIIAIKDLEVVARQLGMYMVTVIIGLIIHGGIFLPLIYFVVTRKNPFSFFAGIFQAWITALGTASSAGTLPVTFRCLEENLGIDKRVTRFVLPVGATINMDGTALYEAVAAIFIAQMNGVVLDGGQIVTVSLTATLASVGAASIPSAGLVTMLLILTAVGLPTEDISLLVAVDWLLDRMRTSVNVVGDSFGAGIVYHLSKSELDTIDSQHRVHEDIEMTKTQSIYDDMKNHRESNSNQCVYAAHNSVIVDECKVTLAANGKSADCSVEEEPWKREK

As to `COC(=O)[C@@H](N)CC(=O)Nc1ccc2c(c1)Cc1cc(F)ccc1-2` [compound 1, (S)-Methyl 2-amino-4-(7-fluoro-9H-fluoren-2-ylamino)-4-oxobutanoate], in data set [1], the “inhibition of binding of FIG. 8 radioligands at their protein binding sites” value is listed as “No Activity”. Moreover, the “amount of compound 6 detected in mouse brain, 5 mg/Kg versus 1 mg/Kg” value in data set [2] (mouse brain, 3, 10 and 100 minutes post-injection) is “dose amount dependence”. In addition, the “amount of compound 6 detected in plasma, 5 mg/Kg versus 1 mg/Kg” value in data set [2] (mouse plasma, 3 and 10 minutes post-injection) is “dose amount dependence”. Moreover, in data set [2], the “levels of compound 6 (hydrolyzed compound 1) per gram brain tissue” value was “higher levels”. The same compound yielded a 50% inhibitory concentration (IC50) against EAAT2 [3] (IC50, EAAT2 interaction, first experimental in vitro conditions (single concentrations, simultaneous addition)) greater than 10 µM. At EAAT2 [3] (concentrations up to 10 μM, added simultaneously with 3H-D-aspartate, 5 min), the “inhibition of 1 μM [3H]D-aspartate uptake by EAAT2” value was “little or no inhibition”. Moreover, the “reduction of tissue SUV signals of tracer 2 by pre-administration (challenge)” value at EAAT2 [4] is reported as 2-3 fold.
For the compound `N[C@@H](CC(=O)Nc1ccc2c(c1)Cc1cc(F)ccc1-2)C(=O)O` [compound 6, (S)-2-Amino-4-(7-fluoro-9H-fluoren-2-ylamino)-4-oxo-butanoic acid], the “inhibition of binding of FIG. 8 radioligands at their protein binding sites” value in data set [1] is listed as “No Activity”. Moreover, in data set [2], the “levels of compound 6 (hydrolyzed compound 1) per gram brain tissue” value is listed as “lower levels”. For the same compound, the “inhibition of 1 μM [3H]D-aspartate uptake by EAAT2” value at EAAT2 [3] is on record as “almost completely inhibited all uptake”.
